{"source": "patent US6362215B1", "about": "(priority 1998, dated 2002)", "key": {"laying hens [1]": {"test_system": "laying hens", "assay": "Other tests on shell quality of older hens supplied with calcium L-pidolate", "assay_type": "in vivo", "conditions": "between the 60th week and the 72nd week", "text": "The decrease in quality of the shell increases between the 55th and 65th week. The hens are generally sacrificed at 68 to 70 weeks. […] As a result, the duration of exploitation of the hen can thus be prolonged so as to improve the profit of raising by reducing the hen/egg cost."}, "laying hens [2]": {"test_system": "laying hens", "assay": "Henhouse test on laying hens, calcium L-pidolate in feedstuff; eggs examined by candling", "quoted_text": "The downgraded percentage corresponds to the percentage of eggs with cracked shells, which shell having been carefully examined by candling so as to detect any rupture of the shell (cracks, holes, etc.). The percentage of uncracked egg shells was computed from eggs on which no shell rupture was observed by candling."}}}
{"substance": "calcium L-pidolate", "values": [{"measurement": "decrease in quality of the shell", "setting": "laying hens [1]", "value": "can be stabilized"}, {"measurement": "persistence of improvements in egg color (pure white eggs or chalky appearance) after stopping treatment", "setting": "laying hens [2]; after stopping treatment", "value": "persisted eight to ten days after stopping treatment"}, {"measurement": "percentage of downgraded eggs (eggs with cracked shells)", "setting": "laying hens [2]; day after the day of administration in feedstuff, 19,300 hens, candling", "value": "decrease of the percentage of downgraded eggs"}, {"measurement": "effect on quality, in particular mechanical strength of the egg shells, after end of treatment", "setting": "laying hens [2]; day after the end of treatment", "value": "decreased and disappeared completely"}, {"measurement": "percentage of downgraded eggs over the test period", "setting": "laying hens [2]; tests of FIG. 1, winter, October-November", "value": "maintaining the percentage of downgraded eggs at a substantially constant value"}]}
